The source of these data is patent US20200191798A1, “DOSE DETERMINATION FOR IMMUNOTHERAPEUTIC AGENTS” (BIONTECH RNA PHARMACEUTICALS GMBH, priority 2016, published 2020).

The assay deals with cytokines in the blood. Briefly: Plasma cytokines after intravenous infusion of TLR-7 agonists in cynomolgus monkeys. It counts as in vivo, cynomolgus monkey. The note with it: thirty minute i.v. infusion. The text has this: The objective of the following study was to observe the effect of the in vivo administration of different amounts of small molecule agonists of TLR-7, N-(4-(4-amino-2-(2-methoxyethyl)-1H-imidazo[4,5-c]quinolin-1-yl)butyl)-N-(tetrahydro-2H-pyran-4-yl)acetamide (SM1) and N-(4-(4-amino-2-ethyl-1H-imidazo[4,5-c]quinolin-1-yl)butyl)-N-(1,1-dioxidothietan-3-yl)acetamide (SM3), on expression of various cytokines in the blood in a cynomolgus monkey model. The various cytokines whose expression was determined include interferon alpha, interleukin 1 receptor antagonist, interleukins 4, 6, 8, 10, 12, 15, 18, monocyte chemoattractant protein 1, granulocyte-colony stimulating factor, macrophage inflammatory protein 1 beta, tumor necrosis factor alpha, and vascular endothelial growth factor.
A defined single dose of one of the agonist compounds was administered intravenously to cynomolgus monkeys in a thirty minute infusion. […]
Cytokines levels were determined using an interferon alpha Elisa kit (e.g., VeriKine™ Cynomolgus/Rhesus IFNα ELISA Kit) and a Luminex® non-human primate cytokine/chemokine kit (e.g., Milliplex Non-Human Primate Cytokine/Chemokine Magnetic Premixed 23 Plex Panel), in accordance to the manufacturers' instructions. […]

In the case of `COCCc1nc2c(N)nc3ccccc3c2n1CCCCN(C(C)=O)C1CCOCC1` [SM1, N-(4-(4-amino-2-(2-methoxyethyl)-1H-imidazo[4,5-c]quinolin-1-yl)butyl)-N-(tetrahydro-2H-pyran-4-yl)acetamide], the “cytokine levels in plasma (FIGS. 10a-10kk)” value (male and female cynomolgus monkeys, 30, 100 or 300 μg/kg, then at 14 days 1, 3 or 10 mg/kg) is “production of various cytokines in a highly individual manner”.

Consider `CCc1nc2c(N)nc3ccccc3c2n1CCCCN(C(C)=O)C1CS(=O)(=O)C1` [SM3, N-(4-(4-amino-2-ethyl-1H-imidazo[4,5-c]quinolin-1-yl)butyl)-N-(1,1-dioxidothietan-3-yl)acetamide], for which the “cytokine levels in plasma (FIGS. 11a-11m)” value (male cynomolgus monkeys, 300 μg/kg, 1, 3 and 10 mg/kg) was “production of various cytokines in a highly individual manner”.
